According to US8449930B2, “Drug or dermatological composition containing an avocado peptide extract for treating and preventing pruritus” (Laboratoires Expanscience, priority 2008, dated 2013):

How the values were obtained:
Type in all cases: cell-based
PAR-2 = PAR-2 gene expression in reconstructed epidermises (cDNA arrays); details: 1 μM retinoic acid, 6 hours
Procedure: Seventeen-day reconstructed epidermises (Skinethic) were treated systemically with 0.04% (w/v) avocado peptide extract (obtained in example 1) or 1 μM retinoic acid (Sigma, positive reference) for 6 hours.
Gene expression was analyzed using standard simplified DNA arrays. These microarrays involved spotting specific cDNA markers of interest on nylon membranes. Analysis was carried out according to a suitable miniaturized and optimized technology based on the use of messenger RNA and ^33P labeling.
When culturing was complete, the epidermises were rinsed with phosphate buffered saline (PBS) solution. The total RNA of the epidermises was then extracted and purified using TRI Reagent (Sigma) according to a standardized protocol. RNA quantity and quality were then evaluated using an Agilent 2100 bioanalyzer. The mRNA of each culture was reverse transcribed using oligo(dT) and a ^33P-labeled deoxyribonucleotide triphosphate. Multiple labeled cDNA “target” sequences were prepared for each culture. These targets were then hybridized, under optimized conditions, with cDNA “probes” in excess bound to membranes. After washing, the relative quantity of labeled target was measured by direct counting using a Phosphorlmager.
The membranes were analyzed using suitable software.

[1] = system: Normal human epidermal keratinocytes (NHEK); assay: Synthesis of GAGs by keratinocytes (35S-sulfate incorporation); details: 72 hours
Procedure: (§1) Normal human epidermal keratinocytes (NHEK) were pre-cultured for 24 hours at 37° C. and 5% CO2 in low-calcium (0.09 mM) SFM (Invitrogen) medium supplemented with 0.25 ng/ml EGF (Invitrogen), 25 μg/ml pituitary extract (Invitrogen) and 25 μg/ml gentamycin (Sigma).
(§2) The keratinocytes were then treated for 72 hours with the avocado peptide extract (0.05% DM and 0.005% DM), according to example 1, or by the references: 0.1 μM retinoic acid (Sigma) or 1.5 mM calcium (Prolabo). Two identical series were prepared in order to assay both the release/production of hyaluronic acid and the incorporation of […] in the GAGs fraction. The batch corresponding to the assay of the GAGs was supplemented with ^35S-sulfate (Amersham) after 48 hours of culture (labeling during the last 24 hours).
At the end of the treatment, in the batch corresponding to the assay of GAGs, the incorporated radioactivity was counted and thus the variation in the synthesis of GAGs in relation to the control was analyzed.
(§3) Intergroup comparisons were carried out by analysis of variance using Dunnett's multiple comparison test.

[2] = system: Normal human epidermal keratinocytes (NHEK); assay: Synthesis/release of hyaluronic acid by keratinocytes (ELISA); details: 0.1 μM retinoic acid, 72 hours, culture supernatants
Procedure: as §1, §2
In the batch corresponding to the assay of hyaluronic acid, at the end of the treatment, the culture supernatants were collected and hyaluronic acid was assayed using a specific modified ELISA test (Biogenic).
as §3

[3] = system: Rat peritoneal mast cells; assay: Release of histamine by mast cells induced by substance P
Procedure: (§4) The studies presented below were carried out on rat peritoneal mast cells. These cells have the same features as cutaneous mast cells and thus constitute an experimental model representative of human skin.
Rat peritoneal mast cells (10,000 cells in suspension/250 μl Tyrode's buffer) were incubated for […] at 37° C. in the presence or absence of 0.05%, 0.5% and 1% (w/v) avocado peptide extract, obtained in example 1, or 10 mM calcium, used as the reference histamine release inhibitor.
The cells were then stimulated for 10 minutes by 10 μM substance P (Neosystem) in the presence of 0.3 mM calcium.
The reaction was quenched by centrifugation and the supernatants and cell pellets were taken up in 0.8 N perchloric acid in order to assay histamine using the spectrofluorometric method.
The quantities of histamine released were expressed as a percentage of release (quantity in supernatants/total quantity).

[4] = system: Rat peritoneal mast cells; assay: Release of tryptase by mast cells induced by calcium ionophore A23187; details: 50 μM quercetin
Procedure: as §4
Rat peritoneal mast cells (2×10^3 cells/ml) were incubated for 30 minutes at 37° C. in the presence or absence of 0.005% (w/v) avocado peptide extract (obtained in example 1) or 50 μM quercetin (Sigma), the reference tryptase release inhibitor. The cells were then stimulated for 15 minutes by 0.5 μM calcium ionophore A23187 (Millipore). The calcium ionophore is used to induce the release of tryptase (it induces an influx and mobilization of intracellular calcium). The reaction was quenched by centrifugation at 4° C.
Tryptase release was evaluated by assaying tryptase in the cell pellets and supernatants by means of the Mast Cell Degranulation Assay Kit (Millipore). This test is based on the spectrophotometric detection of the chromophore p-nitroaniline (pNA) after cleavage of the tosyl-gly-pro-lys-pNA substrate by tryptase.

CC1=C(/C=C/C(C)=C/C=C/C(C)=C/C(=O)O)C(C)(C)CCC1 [retinoic acid]
PAR-2 (relative expression) Mean (PAR-2; systemic treatment): 3
Percentage inhibition of PAR-2 gene expression (PAR-2; vs control epidermises): −29%
Incorporation of 35S-sulfate (cpm) ([1]; 0.1 μM retinoic acid): 13217 cpm
Percentage (change in synthesis of GAGs vs control cells) ([1]; 0.1 μM retinoic acid): +18%
HA [2]: 11503 ng/mL

[Ca+2] [calcium]
Histamine (% release) Mean ([3]; 10 mM calcium (reference inhibitor), stimulated 10 min by 10 μM substance P): 16 % release
Percentage inhibition of histamine release ([3]; calcium, 10 μM in table 8, 10 mM in text, vs stimulated control (substance P)): −78%
Incorporation of 35S-sulfate (cpm) ([1]; 1.5 mM calcium): 17753 cpm

O=c1c(O)c(-c2ccc(O)c(O)c2)oc2cc(O)cc(O)c12 [quercetin]
Tryptase (ng/ml) Mean ([4]; 30 min preincubation, stimulated 15 min by 0.5 μM calcium ionophore A23187): 44 ng/mL
inhibition at 50 µM ([4]; Rattus norvegicus, Mast cell, vs stimulated control (Ca ionophore), read-out: Percentage inhibition of tryptase release): 47%
